The results in this text go back to article PMC10574601, “Benzophenanthridine Alkaloid Chelerythrine Elicits Necroptosis of Gastric Cancer Cells via Selective Conjugation at the Redox Hyperreactive C-Terminal Sec^498 Residue of Cytosolic Selenoprotein Thioredoxin Reductase” (Molecules, 2023).

Series [1] has as its target T1, thioredoxin reductase 1 (TXNRD1) (Rattus norvegicus, UniProt O89049).
T1 construct: recombinant rat TXNRD1, wild-type
T1 sequence (O89049 1-499): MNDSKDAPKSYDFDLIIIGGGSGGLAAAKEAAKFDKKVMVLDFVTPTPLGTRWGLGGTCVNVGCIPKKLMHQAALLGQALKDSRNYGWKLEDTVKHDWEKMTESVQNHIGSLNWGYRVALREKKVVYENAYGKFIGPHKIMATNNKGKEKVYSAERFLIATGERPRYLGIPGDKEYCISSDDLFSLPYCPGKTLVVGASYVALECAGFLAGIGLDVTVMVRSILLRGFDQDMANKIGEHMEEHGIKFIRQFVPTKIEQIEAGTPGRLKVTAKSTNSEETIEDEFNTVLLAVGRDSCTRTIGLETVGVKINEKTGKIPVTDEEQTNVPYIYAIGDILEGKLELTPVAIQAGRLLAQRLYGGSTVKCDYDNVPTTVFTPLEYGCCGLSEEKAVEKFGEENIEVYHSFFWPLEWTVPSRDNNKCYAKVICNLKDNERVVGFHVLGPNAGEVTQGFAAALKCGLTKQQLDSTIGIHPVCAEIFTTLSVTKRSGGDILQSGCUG
In words: DTNB reduction assay after […] h incubation; desalting shows irreversibility. The series is classed as biochemical.

The target in series [2] is T1, thioredoxin reductase 1 (TXNRD1). In words: NADPH oxidation at […] nm with […] TXNRD1. The format is biochemical.

pIC50: −log10 of the molar value.

Broadly, the pIC50 is −log10 of the IC50, conventionally taken in molar units. As to `COc1ccc2c(c[n+](C)c3c4cc5c(cc4ccc23)OCO5)c1OC` [Che, chelerythrine], in series [1], the pIC50 is 4.18.

Consider `C[n+]1cc2c3c(ccc2c2ccc4cc5c(cc4c21)OCO5)OCO3` [San, sanguinarine], for which, in series [1], the pIC50 was 4.33.

In the case of `O=C1C=CC(=O)c2c(O)cccc21` [juglone, 5-Hydroxy-1,4-naphthoquinone], in series [2], the “NADPH oxidation at 340 nm with 30 nM TXNRD1” value is listed as “juglone, a substrate of TXNRD1, exhibited strong NADPH oxidation”.
